Measurements taken from patent EP3292132B1, “PI3K INHIBITOR COMPOUNDS TO TREAT CANCER” (FUNDACIÓN MEDINA. Centro de Excelencia en Investigación de …, priority 2015, dated 2016).

Experiments:
MCF-7 cell line = assay: Cell cycle analysis by flow cytometry (propidium iodide DNA staining); assay type: cell-based; conditions: for percentage of cells in each cell cycle phase: G0/G1 / percentage of cells in each cell cycle phase: G2/M / percentage of cells in each cell cycle phase: S: 72 hours of incubation
Protocol: For the evaluation of the MDN-0088 activity, the MCF-7 cell line was used. The method used was flow cytometry to determine the effect of MDN-0088 on cell cycle. This method of DNA staining utilizes ethanol to fix the cells and permeabilize the membrane, which allows the dye (Propidium Iodide) to enter the cells.
For this purpose, cells were seeded in 6-well plates at 200,000 cells/well. After 24 hours, cells were serum-deprived for 72 hours. Medium was removed and compounds/standards were added in fresh medium at a different concentration (4µL of compound/2mL fresh medium). DMSO concentration was 0.2% in all wells. After 72 hours of incubation (37 °C, 5% CO2), cells were scrapped and centrifuged (1200rpm for 5 min) and washed twice with PBS. 330 µL of cell suspension was placed in a Facs tube and 660 µL ice cold 100% ethanol was added drop-wise to the tube walls. Tubes were mixed by vortexing slowly during addition of ethanol. They were left at […] overnight.
Tubes were centrifuged (1200 rpm for 5 min) to remove ethanol, 4 mL PBS was added and they were washed at 1200 rpm for 5 min. The supernatant was removed and cells were resuspended in DNA staining solution (500 µL PBS/IP 20µg/mL/Rnase 0.2 mg/ml). Data was acquired on a flow cytometer (Accury, BD).
As shown in Table 3 and Figure 1, an increase in G0/G1 and a decrease both in S and G2/M phase were observed. […]

AKT = assay: Western blot, PI3K/AKT/mTOR pathway inhibition: total AKT; assay type: cell-based; conditions: 60 min treatment; signals quantified using β-actine
From the text: (§1) Western blot technique was used, using an Odissey Licor equipment to identify the proteins. Phospho AKT, AKT and Phospho GSK3β antibodies were used as first antibodies and anti-mouse 680nm as second antibody. Then, the signals were quantified using β-actine.

Phospho AKT = assay: Western blot, PI3K/AKT/mTOR pathway inhibition: phospho AKT; assay type: cell-based; conditions: 1 hour treatment; signals quantified using β-actine
From the text: as §1

Phospho GSK3β = assay: Western blot, PI3K/AKT/mTOR pathway inhibition: phospho GSK3β; assay type: cell-based; conditions: 1 hour treatment; signals quantified using β-actine
From the text: as §1

mice = conditions: mouse, ip, 50 mg/kg
Protocol: In order to evaluate the in vivo toxicity, mice were intraperitoneal injected with MDN-0088 at 50 mg/kg.

Row | Compound | percentage of cells in each cell cycle phase: G0/G1 (MCF-7 cell line; MCF-7, 6.25 µM) [%] | percentage of cells in each cell cycle phase: G2/M (MCF-7 cell line; MCF-7, 6.25 µM) [%] | percentage of cells in each cell cycle phase: S (MCF-7 cell line; MCF-7, 6.25 µM) [%] | percentage of cells in each cell cycle phase: G0/G1 (MCF-7 cell line; MCF-7, 12.5 µM) [%] | percentage of cells in each cell cycle phase: G2/M (MCF-7 cell line; MCF-7, 12.5 µM) [%] | percentage of cells in each cell cycle phase: S (MCF-7 cell line; MCF-7, 12.5 µM) [%] | percentage of cells in each cell cycle phase: G0/G1 (MCF-7 cell line; MCF-7, 25 µM) [%] | percentage of cells in each cell cycle phase: G2/M (MCF-7 cell line; MCF-7, 25 µM) [%] | percentage of cells in each cell cycle phase: S (MCF-7 cell line; MCF-7, 25 µM) [%] | percentage of cells in each cell cycle phase: G0/G1 (MCF-7 cell line; MCF-7, 50 µM) [%] | percentage of cells in each cell cycle phase: G2/M (MCF-7 cell line; MCF-7, 50 µM) [%] | percentage of cells in each cell cycle phase: S (MCF-7 cell line; MCF-7, 50 µM) [%] | effect on cell cycle (MCF-7 cell line; MCF-7, result in words) | AKT total (AKT) | pAKT (Phospho AKT) | phospho-GSK3 β (Phospho GSK3β) | weight loss or changes in behavior (mice; in vivo) | in vivo toxicity (mice)
1 | CCCCCCCC(=O)CCCc1oc(=O)ccc1O[C@@H]1O[C@H](CO)[C@@H](O)[C@H](O)[C@H]1O [MDN-0088] | 48.17 | 17.71 | 6.09 | 53.49 | 15.76 | 5.64 | 56.9 | 14.38 | 3.49 | 62.79 | 10.99 | 2.37 | blocks the cell cycle in G0/G1 phase | 0.58 | 0.027 | 0.037 | no weight loss or changes in their behavior | absence of toxicity
2 | O=c1cc(N2CCOCC2)oc2c(-c3ccccc3)cccc12 [LY294002, reference compound] | – | – | – | – | – | – | – | – | – | – | – | – | – | 0.61 | 0.055 | 0.042 | – | –
